In patent publication US20100120788A1, “IDENTIFICATION OF POLYNUCLEOTIDES FOR […] OF COMPOUNDS THAT […] WITH AND/OR MODULATE PROTEIN TYROSINE KINASES AND/OR PROTEIN TYROSINE KINASE […] IN PROSTATE CELLS” (Bristol-Myers Squibb Company, priority 2007, published 2010):

Test system: secreted uPA protein in PC3 cells
Assay: uPA protein ELISA assay of culture medium
Type: cell-based, human
Details: different doses, 24 h, per 50,000 viable cells
Text: FIG. 3. PLAU gene expression and regulation by dasatinib analyzed at mRNA and protein levels. (A) Differential baseline expression of PLAU gene between resistant (R, in black) and sensitive (S, in red) cell lines. The X-values are the expression level in log2-scale. The resistant cell line expressing high level of PLAU was WPMY1 and the sensitive cell line expressing low level of PLAU was LNCaP. (B) Down-regulation of PLAU mRNA level by dasatinib-treatment in 5 sensitive cell lines. The cells were treated with 100 nM dasatinib (+D) or DMSO (Ctrl) for 48 hours. The p value was 0.048 in paired t-test, indicating a significant reduction of PLAU mRNA following dasatinib treatment. (C) Correlation between dasatinib-induced PLAU mRNA down-regulation with the sensitivity of cell lines to dasatinib. […] The amount of uPA protein secreted into the culture medium by 50,000 viable cells was assessed by ELISA assay. […]
Cell were seeded in 24-well plates at density of 25,000 cells/well. […] Total number of cells were also quantitated using a cell counter, and the number of viable cells were assessed with Trypan Blue. The amount of uPA protein in the supernatant was determined using the uPA ELISA kit (America Diagnostica, Stamford, Conn.), and the concentrations of uPA secreted by 50,000 viable cells into the medium were calculated.

## Cc1nc(Nc2ncc(C(=O)Nc3c(C)cccc3Cl)s2)cc(N2CCN(CCO)CC2)n1 [BMS-A, N-(2-chloro-6-methylphenyl)-2-[[6-[4-(2-hydroxyethyl)-1-piperazinyl]-2-methyl-4-pyrimidinyl]amino]-5-thiazolecarboxamide]
  amount of uPA protein secreted into the growth medium: reduced
